How the values were obtained:
[1] = test system: Puccinia recondita f. Sp. Tritici; experiment: Fungicidal activity against Puccinia recondita f. sp. tritici / wheat / leaf disc curative (brown rust); format: in vivo; conditions: foliar, 24 h, 200 ppm in the applied formulation, wheat leaf segments, curative (applied 1 day after inoculation), compared to untreated control leaf disks, read-out: disease control
Protocol: Leaf disks or leaf segments of various plant species are cut from plants grown in a greenhouse. The cut leaf disks or segments are placed in multiwell plates (24-well format) onto water agar. The leaf disks are sprayed with a test solution before (preventative) or after (curative) inoculation. Compounds to be tested are prepared as DMSO solutions (max. 10 mg/ml) which are diluted to the appropriate concentration with 0.025% Tween20 just before spraying. The inoculated leaf disks or segments are incubated under defined conditions (temperature, relative humidity, light, etc.) according to the respective test system. A single evaluation of disease level is carried out 3 to 14 days after inoculation, depending on the pathosystem. Percent disease control relative to the untreated check leaf disks or segments is then calculated.
Fungicidal Activity Against Puccinia recondita f. Sp. Tritici/Wheat/Leaf Disc Curative (Brown Rust)
Wheat leaf segments cv. Kanzler are placed on agar in multiwell plates (24-well format). The leaf segments are then inoculated with a spore suspension of the fungus. Plates were stored in darkness at 19° C. and 75% relative humidity. The formulated test compound diluted in water was applied 1 day after inoculation. The leaf segments were incubated at 19° C. and 75% relative humidity under a light regime of 12 hours light/12 hours darkness in a climate cabinet and the activity of a compound was assessed as percent disease control compared to untreated when an appropriate level of disease damage appears in untreated check leaf segments (6 to 8 days after application).
The following compounds at 200 ppm in the applied formulation give at least 80% disease control in this test when compared to untreated control leaf disks under the same conditions, which show extensive disease development.

[2] = test system: Glomerella lagenarium (Colletotrichum lagenarium); experiment: Fungicidal activity against Glomerella lagenarium (Colletotrichum lagenarium) liquid culture / cucumber / preventative (anthracnose); format: cell-based; conditions: Colletotrichum orbiculare; 20 ppm in the applied formulation; liquid culture (PDB), growth inhibition measured photometrically after 3 to 4 days; compared to untreated control; read-out: disease control
Method in brief: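 Photometric read-out of fungal growth after 2–7 days, expressed as percent antifungal activity versus untreated check. Cryo-stored conidia in PDB; compound at 20 ppm; dark, 24 °C, 96% RH.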

[3] = test system: Puccinia recondita f. Sp. Tritici; experiment: Fungicidal activity against Puccinia recondita f. sp. tritici / wheat / leaf disc preventative (brown rust); format: in vivo; conditions: foliar, 200 ppm in the applied formulation, wheat leaf segments, preventative, compared to untreated control leaf disks, read-out: disease control
Method in brief: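 Preventative leaf-segment test, wheat cv. Kanzler on water agar. Spray compound at 200 ppm, inoculate with spores 1 day later; 19° C., 75% rh, 12/12 h light. Read-out: % disease control vs untreated, 7 to 9 days after application.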

C#CCN(C(=O)N(CC)Cc1ccc(-c2noc(C(F)(F)F)n2)cc1)C1CC1 [Compound 3.99, 1-cyclopropyl-3-ethyl-1-prop-2-ynyl-3-[[4-[5-(trifluoromethyl)-1,2,4-oxadiazol-3-yl]phenyl]methyl]urea]
≥ 80%: pest or weed control at 200 ppm [1] | inhibition of growth at 20 ppm [2] | pest or weed control at 200 ppm [3]

N#CC1(C(=O)N(Cc2ccc(-c3noc(C(F)(F)F)n3)cc2)CC2CCCO2)CC1 (stereo not drawn) [Compound 1.443, 1-cyano-N-(tetrahydrofuran-2-ylmethyl)-N-[[4-[5-(trifluoromethyl)-1,2,4-oxadiazol-3-yl]phenyl]methyl]-cyclopropane-carboxamide]
≥ 80%: pest or weed control at 200 ppm [1] | inhibition of growth at 20 ppm [2] | pest or weed control at 200 ppm [3]

CCN(Cc1ccc(-c2noc(C(F)(F)F)n2)cc1)C(=O)N1CCCC1 [Compound 3.93, N-ethyl-N-[[4-[5-(trifluoromethyl)-1,2,4-oxadiazol-3-yl]phenyl]methyl]-pyrrolidine-1-carboxamide]
≥ 80%: pest or weed control at 200 ppm [1] | inhibition of growth at 20 ppm [2] | pest or weed control at 200 ppm [3]

CC=C(C)C(=O)N(CCOC)Cc1ccc(-c2noc(C(F)(F)F)n2)cc1 [Compound 1.330, N-(2-methoxyethyl)-2-methyl-N-[[4-[5-(trifluoromethyl)-1,2,4-oxadiazol-3-yl]phenyl]methyl]-but-2-enamide]
≥ 80%: pest or weed control at 200 ppm [1] | inhibition of growth at 20 ppm [2] | pest or weed control at 200 ppm [3]

CCOC(=O)CNC(=O)N(Cc1ccc(-c2noc(C(F)(F)F)n2)cc1)OC [Compound 3.49, ethyl 2-[[methoxy-[[4-[5-(trifluoromethyl)-1,2,4-oxadiazol-3-yl]phenyl]methyl]-carbamoyl]-amino]acetate]
≥ 80%: pest or weed control at 200 ppm [1] | inhibition of growth at 20 ppm [2] | pest or weed control at 200 ppm [3]

CCN(Cc1ccc(-c2noc(C(F)(F)F)n2)cc1)C(=O)N(C)C1CCC1 [Compound 3.101, 1-cyclobutyl-3-ethyl-1-methyl-3-[[4-[5-(trifluoromethyl)-1,2,4-oxadiazol-3-yl]phenyl]methyl]urea]
≥ 80%: pest or weed control at 200 ppm [1] | inhibition of growth at 20 ppm [2] | pest or weed control at 200 ppm [3]

CCN(Cc1ccc(-c2noc(C(F)(F)F)n2)cc1)C(=O)N(C)C(C)C [Compound 3.98, 1-ethyl-3-isopropyl-3-methyl-1-[[4-[5-(trifluoromethyl)-1,2,4-oxadiazol-3-yl]phenyl]methyl]urea]
≥ 80%: pest or weed control at 200 ppm [1] | inhibition of growth at 20 ppm [2] | pest or weed control at 200 ppm [3]

COCCC(=O)N(CCO)Cc1ccc(-c2noc(C(F)(F)F)n2)cc1 [Compound 1.713, N-(2-hydroxyethyl)-3-methoxy-N-[[4-[5-(trifluoromethyl)-1,2,4-oxadiazol-3-yl]phenyl]methyl]-propanamide]
≥ 80%: pest or weed control at 200 ppm [1] | inhibition of growth at 20 ppm [2] | pest or weed control at 200 ppm [3]

CON(Cc1ccc(-c2noc(C(F)(F)F)n2)cc1)C(=O)C(C)NC(C)=O (stereo not drawn) [Compound 1.795, 2-acetamido-N-methoxy-N-[[4-[5-(trifluoromethyl)-1,2,4-oxadiazol-3-yl]phenyl]methyl]-propanamide]
≥ 80%: pest or weed control at 200 ppm [1] | inhibition of growth at 20 ppm [2] | pest or weed control at 200 ppm [3]

CCN(Cc1ccc(-c2noc(C(F)(F)F)n2)cc1)C(=O)N(CC)C1CC1 [Compound 3.89, 1-cyclopropyl-1,3-diethyl-3-[[4-[5-(trifluoromethyl)-1,2,4-oxadiazol-3-yl]phenyl]methyl]urea]
≥ 80%: pest or weed control at 200 ppm [1] | inhibition of growth at 20 ppm [2] | pest or weed control at 200 ppm [3]

O=C(C1CC1)N(CCO)Cc1ccc(-c2noc(C(F)(F)F)n2)cc1 [Compound 1.609, N-(2-hydroxyethyl)-N-[[4-[5-(trifluoromethyl)-1,2,4-oxadiazol-3-yl]phenyl]methyl]-cyclopropane-carboxamide]
≥ 80%: pest or weed control at 200 ppm [1] | inhibition of growth at 20 ppm [2] | pest or weed control at 200 ppm [3]

C#CCN(Cc1ccc(-c2noc(C(F)(F)F)n2)cc1)C(=O)CCCCC [Compound 1.162, N-prop-2-ynyl-N-[[4-[5-(trifluoromethyl)-1,2,4-oxadiazol-3-yl]phenyl]methyl]-hexanamide]
≥ 80%: pest or weed control at 200 ppm [1] | inhibition of growth at 20 ppm [2] | pest or weed control at 200 ppm [3]

CC=C(C)C(=O)N(Cc1ccc(-c2noc(C(F)(F)F)n2)cc1)C(C)CC (stereo not drawn) [Compound 1.374, 2-methyl-N-sec-butyl-N-[[4-[5-(trifluoromethyl)-1,2,4-oxadiazol-3-yl]phenyl]methyl]but-2-enamide]
≥ 80%: pest or weed control at 200 ppm [1] | inhibition of growth at 20 ppm [2] | pest or weed control at 200 ppm [3]

O=C(C1CCCO1)N(Cc1ccc(-c2noc(C(F)(F)F)n2)cc1)CC1CCCO1 (stereo not drawn) [Compound 1.442, N-(tetrahydrofuran-2-ylmethyl)-N-[[4-[5-(trifluoromethyl)-1,2,4-oxadiazol-3-yl]phenyl]methyl]-tetrahydrofuran-2-carboxamide]
≥ 80%: pest or weed control at 200 ppm [1] | inhibition of growth at 20 ppm [2] | pest or weed control at 200 ppm [3]

CCC(C)N(Cc1ccc(-c2noc(C(F)(F)F)n2)cc1)C(=O)C1CCCN1C(C)=O (stereo not drawn) [Compound 1.400, 1-acetyl-N-sec-butyl-N-[[4-[5-(trifluoromethyl)-1,2,4-oxadiazol-3-yl]phenyl]methyl]-pyrrolidine-2-carboxamide]
≥ 80%: pest or weed control at 200 ppm [1] | inhibition of growth at 20 ppm [2] | pest or weed control at 200 ppm [3]

CCCC(=O)N(Cc1ccc(-c2noc(C(F)(F)F)n2)cc1)C(C)CC (stereo not drawn) [Compound 1.373, N-sec-butyl-N-[[4-[5-(trifluoromethyl)-1,2,4-oxadiazol-3-yl]phenyl]methyl]-butanamide]
≥ 80%: pest or weed control at 200 ppm [1] | inhibition of growth at 20 ppm [2] | pest or weed control at 200 ppm [3]

CC1(C(=O)N(Cc2ccc(-c3noc(C(F)(F)F)n3)cc2)CC2CCCO2)COC1 (stereo not drawn) [Compound 1.438, 3-methyl-N-(tetrahydrofuran-2-ylmethyl)-N-[[4-[5-(trifluoromethyl)-1,2,4-oxadiazol-3-yl]phenyl)methyl]-oxetane-3-carboxamide]
≥ 80%: pest or weed control at 200 ppm [1] | inhibition of growth at 20 ppm [2] | pest or weed control at 200 ppm [3]

CCCC(=O)N(Cc1ccc(-c2noc(C(F)(F)F)n2)cc1)Cc1ccco1 [Compound 1.465, N-(2-furylmethyl)-N-[[4-[5-(trifluoromethyl)-1,2,4-oxadiazol-3-yl]phenyl]methyl]-butanamide]
≥ 80%: pest or weed control at 200 ppm [1] | inhibition of growth at 20 ppm [2] | pest or weed control at 200 ppm [3]

O=C(C1CCCCO1)N(Cc1ccc(-c2noc(C(F)(F)F)n2)cc1)CC1CCCO1 (stereo not drawn) [Compound 1.411, N-(tetrahydrofuran-2-ylmethyl)-N-[[4-[5-(trifluoromethyl)-1,2,4-oxadiazol-3-yl]phenyl]methyl]-tetrahydropyran-2-carboxamide]
≥ 80%: pest or weed control at 200 ppm [1] | inhibition of growth at 20 ppm [2] | pest or weed control at 200 ppm [3]

C=CCN(C)C(=O)N(CC)Cc1ccc(-c2noc(C(F)(F)F)n2)cc1 [Compound 3.97, 1-allyl-3-ethyl-1-methyl-3-[[4-[5-(trifluoromethyl)-1,2,4-oxadiazol-3-yl]phenyl]methyl]urea]
≥ 80%: pest or weed control at 200 ppm [1] | inhibition of growth at 20 ppm [2] | pest or weed control at 200 ppm [3]

O=C(C1CCCO1)N(Cc1ccc(-c2noc(C(F)(F)F)n2)cc1)Cc1ccco1 (stereo not drawn) [Compound 1.469, N-(2-furylmethyl)-N-[[4-[5-(trifluoromethyl)-1,2,4-oxadiazol-3-yl]phenyl]methyl]-tetrahydrofuran-2-carboxamide]
≥ 80%: pest or weed control at 200 ppm [1] | inhibition of growth at 20 ppm [2] | pest or weed control at 200 ppm [3]

COCC(=O)N(Cc1ccc(-c2noc(C(F)(F)F)n2)cc1)CC1CCCO1 (stereo not drawn) [Compound 1.415, 2-methoxy-N-(tetrahydrofuran-2-ylmethyl)-N-[[4-[5-(trifluoromethyl)-1,2,4-oxadiazol-3-yl]phenyl]methyl]-acetamide]
≥ 80%: pest or weed control at 200 ppm [1] | inhibition of growth at 20 ppm [2] | pest or weed control at 200 ppm [3]

COCCC(=O)N(Cc1ccc(-c2noc(C(F)(F)F)n2)cc1)Cc1ccco1 [Compound 1.456, N-(2-furylmethyl)-3-methoxy-N-[[4-[5-(trifluoromethyl)-1,2,4-oxadiazol-3-yl]phenyl]methyl]-propanamide]
≥ 80%: pest or weed control at 200 ppm [1] | inhibition of growth at 20 ppm [2] | pest or weed control at 200 ppm [3]

Source: patent publication US11180462B2, “Microbiocidal oxadiazole derivatives” (SYNGENTA PARTICIPATIONS AG, priority 2015, dated 2021)
